Experimental data as given in PMC4389562, “Antigiardial activity of novel triazolyl-quinolone-based chalcone derivatives: when oxygen makes the difference” (Frontiers in Microbiology, 2015).
Where two headings read alike, the source gives them in different places.

How the values were obtained:
[1] = test system: Giardia intestinalis trophozoites; assay: Drug susceptibility of Giardia trophozoites, ATP level by luminescence (BacTiter-Glo), 48 h incubation, anaerobic or microaerobic; type: cell-based, Giardia intestinalis strain WB clone C6; settings: for IC50: 48 h, 37 °C, ATP level; for selectivity ratio at 48 h: human (Caco-2 cells) versus Giardia intestinalis, Caco-2, SI = IC50,Caco-2/IC50,Giardia; for Selectivity (IC50,Caco/IC50,Giardia) Anaerobiosis / Selectivity (IC50,Caco/IC50,Giardia) Microaerobiosis: SI = IC50,Caco-2/IC50,Giardia
Description: Trophozoites of G. intestinalis strain WB clone C6 (ATCC No. 50803TM) were cultured axenically at 37^∘C in 25-cm^2 flasks containing Diamond's TYI-S-33 medium supplemented with 10% bovine calf serum, 1 mg/mL bovine bile, 0.1 g/L streptomycin and 100 U/mL penicillin. Typically, 50 ml medium was inoculated with 25 × 10^6 cells and after 2 days cells were harvested by chilling the flasks on ice for 30 min for drug susceptibility assays. […] The assays were performed following the procedure described in [Bahadur et al. (2014)], using sterile 96-well white clear-bottom plates. […] Each drug concentration was tested in at least six replicates. MTZ was used as an internal positive control in the assay. The microtiter plates were then incubated at 37^∘C under anaerobic or microaerobic conditions, ensured by the Anaerocult® A or the Anaerocult® […] (Merck), respectively. […] Following 48 h incubation with the compound to be tested, 100 μL of the BacTiter-Glo^TM Microbial Cell Viability Assay System reagent (Promega) was added to each well for one-step lysis and ATP level detection. Plates were then incubated at room temperature for 15 min and ATP levels finally detected by luminescence on a plate reader (Wallac Victor3 1420 Multilabel Counter, PerkinElmer). Luminometric data were calibrated using ATP standard curves and normalized to the ATP level measured in control DMSO-treated cells (taken as 100%). The measured ATP level percentage was plotted as a function of the compound concentration and the half-maximal inhibitory concentration (IC50) was obtained by fitting the resulting titration profile to the Hill equation ([Goutelle et al., 2008]). The selectivity index (SI) of the compounds was then calculated as the ratio between the IC50 value measured on human cells over the value determined on Giardia trophozoites (SI = IC50,Caco-2/IC50,Giardia). The antigiardial activity of the novel compounds 23-67 was tested under both anaerobic and microaerobic conditions. According to ([Dunn et al., 2010]; [Bahadur et al., 2014]), susceptibility of Giardia trophozoites to increasing concentrations of each compound was assessed based on ATP level determination by luminescence. Dose-response curves for each compound were obtained after 48 h-incubation and compared to the data collected under identical conditions with MTZ, the drug of choice for treatment of giardiasis. […] Typical dose-response curves are shown in Figure 2, whereas the IC50 values measured for the synthetic compounds and MTZ under anaerobic and microaerobic conditions are reported in Table 1. […] Under anaerobic conditions, 18 out of the 45 synthetic compounds were as effective as MTZ or more under identical conditions (see Table 1).

Caco-2 cells = assay: Counter-screen on Caco-2 cells, ATP level by luminescence (ATPlite), 48 h incubation; type: cell-based, human; settings: atmospheric O2, 5% CO2, 48 h, 37 °C
Description: Trophozoites of G. intestinalis strain WB clone C6 (ATCC No. 50803TM) were cultured axenically at 37^∘C in 25-cm^2 flasks containing Diamond’s TYI-S-33 medium supplemented with 10% bovine calf serum, 1 mg/mL bovine bile, 0.1 g/L streptomycin and 100 U/mL penicillin. […] Human epithelial colorectal adenocarcinoma (Caco-2) cells were grown in 25-cm^2 flasks in EMEM supplemented with 1% (v/v) non-essential amino acids, 2 mM glutamine, 5% (v/v) fetal bovine serum, 0.1 g/L streptomycin, and 100 U/mL penicillin.
Cells were detached with 0.5% trypsin-EDTA and seeded in sterile 96-well white clear-bottom plates at the same density of Giardia trophozoites and at increasing concentration of the compound to be tested, as described above. The assays were carried out exactly as reported for the Giardia trophozoites, except that the plates were incubated (still at 37^∘C) at atmospheric O2 level, 5% CO2, and 95% humidity. Each drug concentration was tested in at least seven replicates. MTZ was used as an internal […] control in the assay. Following 48 h incubation with each compound, according to the manufacturer instructions, 100 μL of the ATPlite^TM luminescence assay system (Perkin Elmer) was added to each well for one-step lysis and ATP level detection by luminescence.
Luminometric data were calibrated using ATP standard curves and normalized to the ATP level measured in control DMSO-treated cells (taken as 100%). The measured ATP level percentage was plotted as a function of the compound concentration and the half-maximal inhibitory concentration (IC50) was obtained by fitting the resulting titration profile to the Hill equation ([Goutelle et al., 2008]). The selectivity index (SI) of the compounds was then calculated as the ratio between the IC50 value measured on human cells over the value determined on Giardia trophozoites (SI = IC50,Caco-2/IC50,Giardia).
Selectivity of the newly synthesized compounds toward Giardia was assessed by running a counter-screen on human epithelial Caco-2 cells. […] This allowed us to calculate the compounds SI, defined as the ratio between the IC50 value measured on human cells over the value determined on Giardia trophozoites.

[2] = Giardia duodenalis, anaerobic conditions (Anaerocult A), read-out: Giardia (anaerobiosis) IC50
[3] = Giardia duodenalis, microaerobic conditions (~5% O2, Anaerocult C), read-out: Giardia (microaerobiosis) IC50
[4] = Giardia under anaerobiosis, read-out: Selectivity (IC50,Caco/IC50,Giardia) Anaerobiosis
[5] = Giardia under microaerobiosis, read-out: Selectivity (IC50,Caco/IC50,Giardia) Microaerobiosis
[6] = anaerobic conditions (Anaerocult A), read-out: Giardia (anaerobiosis) IC50
[7] = microaerobic conditions (~5% O2, Anaerocult C), read-out: Giardia (microaerobiosis) IC50

Row | Structure (SMILES) | IC50 [1, 2] | IC50 [1, 3] | selectivity ratio at 48 h [1, 4] | selectivity ratio at 48 h [1, 5] | IC50 (Caco-2 cells; Homo sapiens, Caco-2, 48 h) | melting point | Selectivity (IC50,Caco/IC50,Giardia) Anaerobiosis ([1]; Giardia under anaerobiosis) | Selectivity (IC50,Caco/IC50,Giardia) Microaerobiosis ([1]; Giardia under microaerobiosis) | IC50 [1, 6] | IC50 [1, 7] | IC50 (Caco-2 cells) | fold more efficient than MTZ against Giardia ([1]; anaerobic conditions, relative to MTZ)
1 | COc1ccc(-n2cc(Cn3c(=O)c(/C=C/C(=O)c4ccc(F)cc4)cc4ccccc43)nn2)cc1 [Compound 25] | 3.9 µM | 1.3 µM | ≥ 5 | ≥ 15 | ≥ 20 µM | 211 to 213 °C | – | – | – | – | – | –
2 | COc1ccccc1C(=O)/C=C/c1cc2ccccc2n(Cc2cn(-c3ccc(F)cc3)nn2)c1=O [Compound 47] | 2.7 µM | 0.3 µM | ≥ 7 | ≥ 66 | ≥ 20 µM | 132 to 134 °C | – | – | – | – | – | –
3 | Cc1ccc(C(=O)/C=C/c2cc3ccccc3n(Cc3cn(-c4ccc(Cl)cc4)nn3)c2=O)cc1 [Compound 55] | 8.7 µM | 1.1 µM | 2.3 | 18.2 | 20 µM | 217 to 219 °C | – | – | – | – | – | –
4 | Cc1ccc(-n2cc(Cn3c(=O)c(/C=C/C(=O)c4cccc(F)c4)cc4ccccc43)nn2)cc1 [Compound 33] | – | – | – | – | – | – | 3,4 | 19,1 | 4 µM | 0.7 µM | 13.4 µM | –
5 | Cc1ccc(C(=O)/C=C/c2cc3ccccc3n(Cc3cn(-c4ccc(F)cc4)nn3)c2=O)cc1 [Compound 46] | – | – | – | – | – | – | 2,5 | 15,8 | 2.5 µM | 0.4 µM | 6.3 µM | –
6 | O=C(/C=C/c1cc2ccccc2n(Cc2cn(-c3ccc(Cl)cc3)nn2)c1=O)c1ccc(Cl)cc1 [Compound 53] | 9 µM | 1.1 µM | ≥ 3 | ≥ 27 | ≥ 30 µM | 180 to 182 °C | – | – | – | – | – | –
7 | O=C(/C=C/c1cc2ccccc2n(Cc2cn(-c3ccccc3)nn2)c1=O)c1ccccc1F [Compound 59] | 1.9 µM | 0.4 µM | 5.9 | 28 | 11.2 µM | 172 to 174 °C | – | – | – | – | – | –
8 | COc1ccc(-n2cc(Cn3c(=O)c(/C=C/C(=O)c4ccccc4F)cc4ccccc43)nn2)cc1 [Compound 23] | ≥ 100 µM | ≥ 20 µM | – | – | ≥ 100 µM | 215 to 217 °C | – | – | – | – | – | –
9 | O=C(/C=C/c1cc2ccccc2n(Cc2cn(-c3ccc(Cl)cc3)nn2)c1=O)c1ccc(Br)cc1 [Compound 54] | – | – | – | – | – | – | ≥ 2 | ≥10 | 9.2 µM | 1.9 µM | ≥ 20 µM | –
10 | O=C(/C=C/c1cc2ccccc2n(Cc2cn(-c3ccc(F)cc3)nn2)c1=O)c1ccccc1F [Compound 41] | – | – | – | – | – | – | 5,8 | 26 | 0.9 µM | 0.2 µM | 5.2 µM | three to fourfold
11 | COc1ccccc1C(=O)/C=C/c1cc2ccccc2n(Cc2cn(-c3ccc(C)cc3)nn2)c1=O [Compound 38] | – | – | – | – | – | – | 6,9 | 34,3 | 2 µM | 0.4 µM | 13.7 µM | –
12 | COc1ccc(C(=O)/C=C/c2cc3ccccc3n(Cc3cn(-c4ccc(F)cc4)nn3)c2=O)cc1 [Compound 49] | – | – | – | – | – | – | ≥3 | ≥38 | 13 µM | 1.3 µM | ≥ 50 µM | –
13 | COc1ccc(-n2cc(Cn3c(=O)c(/C=C/C(=O)c4cccc(F)c4)cc4ccccc43)nn2)cc1 [Compound 24] | – | – | – | – | – | – | – | ≥6 | ≥ 100 µM | 8.4 µM | ≥ 50 µM | –
14 | Cc1ncc([N+](=O)[O-])n1CCO [MTZ, metronidazole, reference compound] | 3.4 µM | ≥ 25 µM | ≥ 29 | – | > 100 µM | – | – | – | – | – | – | –
15 | O=C(/C=C/c1cc2ccccc2n(Cc2cn(-c3ccccc3)nn2)c1=O)c1ccc(Br)cc1 [Compound 63] | – | – | – | – | – | – | ≥ 7 | ≥ 50 | 6.3 µM | 1 µM | ≥ 50 µM | –
16 | COc1cccc(C(=O)/C=C/c2cc3ccccc3n(Cc3cn(-c4ccc(C)cc4)nn3)c2=O)c1 [Compound 39] | 2.9 µM | 1.3 µM | – | – | – | 192 to 194 °C | – | – | – | – | – | –
17 | COc1ccc(-n2cc(Cn3c(=O)c(/C=C/C(=O)c4cccc(OC)c4)cc4ccccc43)nn2)cc1 [Compound 30] | – | – | – | – | – | – | ≥33 | ≥153 | 5.9 µM | 1.3 µM | ≥ 200 µM | –
18 | COc1ccc(-n2cc(Cn3c(=O)c(/C=C/C(=O)c4ccc(Br)cc4)cc4ccccc43)nn2)cc1 [Compound 27] | – | – | – | – | – | – | ≥2 | ≥10 | 9.6 µM | 2 µM | ≥ 20 µM | –
